tested on: mouse acetic acid writhing model; experiment: mouse acetic acid writhing model (nociceptive pain); type: in vivo; conditions: Mus musculus; male ddY mice; oral administration 45 min before 0.6% acetic acid i.p.; dose suppressing 50% of writhing responses vs vehicle group; vehicle A or B; read-out: ED50

SMILES	ED50
OC1CCC(O)(c2cc(-c3ccc(F)cc3)n(-c3ccc(Cl)cc3)n2)CC1 (stereo not drawn) [compound 15]	> 10 mg/kg
COc1ccc(-n2nc(C3(O)CCC(O)CC3)cc2-c2ccc(F)cc2)cc1 (stereo not drawn) [compound 13]	> 10 mg/kg
COc1ccc(-n2nc(C3(O)CCC(O)CC3)cc2-c2ccccc2C)cc1 (stereo not drawn) [compound 1]	> 10 mg/kg
COc1ccc(-n2nc(C3(O)CCC(O)CC3)c(F)c2-c2ccc(C)cc2)cc1 (stereo not drawn) [Comparative Example 28, 1-(4-Fluoro-1-(4-methoxyphenyl)-5-(p-tolyl)-1H-pyrazol-3-yl)cyclohexan-cis-1,4-diol]	> 10 mg/kg
OC1CCC(O)(c2cc(-c3ccc(Cl)cc3)n(-c3ccc(F)cc3)n2)CC1 (stereo not drawn) [compound 5]	> 10 mg/kg
COc1ccc(-n2nc(C3(O)CCC(OC)CC3)cc2-c2ccc(C)cc2)cc1 (stereo not drawn) [Example 63, 4-Methoxy-1-(1-(4-methoxyphenyl)-5-(p-tolyl)-1H-pyrazol-3-yl)cyclohexanol]	5.36 mg/kg
COc1ccc(-n2nc(C3(F)CCC(O)CC3)cc2-c2ccc(C)cc2)cc1 (stereo not drawn) [Example 60, t-4-Fluoro-4-(1-(4-methoxyphenyl)-5-(p-tolyl)-1H-pyrazol-3-yl)-cyclohexan-r-1-ol]	1.37 mg/kg
OC1CCC(O)(c2cc(-c3ccc(Cl)cc3)n(-c3ccc(Cl)cc3Cl)n2)CC1 (stereo not drawn) [compound 7]	> 10 mg/kg
CCc1ccc(-c2cc(C3(O)CCC(O)CC3)nn2-c2ccc(OC)cc2)cc1 (stereo not drawn) [Compound 28]	5.27 mg/kg
COc1ccc(-n2nc(C3(CO)CCC(O)CC3)cc2-c2ccc(C)cc2)cc1 (stereo not drawn) [Example 65-A, 4-(Hydroxymethyl)-4-(1-(4-methoxyphenyl)-5-p-tolyl-1H-pyrazol-3-yl)-trans-1,4-cyclohexanol]	1.44 mg/kg
COc1ccc(-n2nc(C3(O)CCC(O)CC3)cc2-c2ccc(C)c(F)c2)cc1 (stereo not drawn) [Compound 31]	0.41 mg/kg
Cc1ccc(-n2nc(C3(O)CCC(O)CC3)cc2-c2ccc(F)cc2)cc1 (stereo not drawn) [compound 21]	> 10 mg/kg
Cc1ccc(-c2cc(C3(O)CCC(O)CC3)nn2-c2ccc(Cl)cc2)cc1 (stereo not drawn) [Example 6-A, 1-(1-(4-Chlorophenyl)-5-p-tolyl-1H-pyrazol-3-yl)cyclohexan-trans-1,4-diol]	7.97 mg/kg
Cc1ccc(-c2cc(C3(O)CCC(O)CC3)nn2-c2ccc(S(C)(=O)=O)cc2)cc1 (stereo not drawn) [compound 23]	> 10 mg/kg
OC1CCC(O)(c2cc(-c3ccc(F)cc3)n(-c3ccccc3)n2)CC1 (stereo not drawn) [compound 19]	> 10 mg/kg
COc1ccc(-n2nc(C3(O)CCC(O)CC3)cc2-c2ccc(C)cc2)cc1F (stereo not drawn) [Compound 29]	3.77 mg/kg
Cc1ccc(-c2cc(C3(O)CCC(O)CC3)nn2-c2ccc(F)cc2)cc1 (stereo not drawn) [compound 11]	> 10 mg/kg
COc1ccc(-n2nc(C3(OC)CCC(O)CC3)cc2-c2ccc(C)cc2)cc1 (stereo not drawn) [Comparative Example 27, 4-Methoxy-4-(1-(4-methoxyphenyl)-5-p-tolyl-1H-pyrazol-3-yl)cyclohexanol]	> 10 mg/kg
CCOC(=O)C1CCC(O)(c2cc(-c3ccc(C)cc3)n(-c3ccc(OC)cc3)n2)CC1 (stereo not drawn) [Example 71, Ethyl 4-hydroxy-4-(1-(4-methoxyphenyl)-5-p-tolyl-1H-pyrazol-3-yl)-cis-cyclohexanecarboxylate]	1.58 mg/kg
OC1CCC(O)(c2cc(-c3ccc(F)cc3)n(-c3ccc(F)cc3)n2)CC1 (stereo not drawn) [compound 17]	> 10 mg/kg
COc1ccc(-c2nc(C3(O)CCC(O)CC3)sc2-c2ccc(C)cc2)cc1 (stereo not drawn) [Example 69-A, 1-(4-(4-Methoxyphenyl)-5-(p-tolyl)thiazol-2-yl)cyclohexan-trans-1,4-diol]	3.02 mg/kg
COc1ccc(-n2nc(C3(O)CCCCC3)cc2-c2ccc(C)cc2)cc1 [Compound 1]	3.78 mg/kg
COc1ccc(-n2nc(C3(O)CCC(O)CC3)cc2-c2cccc(C)c2)cc1 (stereo not drawn) [compound 10]	> 10 mg/kg
COc1ccc(-n2nc(C3(OC(C)=O)CCC(O)CC3)cc2-c2ccc(C)cc2)cc1 (stereo not drawn) [Comparative Example 26, c-4-Hydroxy-1-(1-(4-methoxyphenyl)-5-(p-tolyl)-1H-pyrazol-3-yl)-cyclohexan-r-1-yl acetate]	> 10 mg/kg
COc1ccc(-n2nc(C3(O)CCC(O)CC3)cc2-c2cccnc2OC)cc1 (stereo not drawn) [compound 24]	> 10 mg/kg
COc1ccc(-n2nc(C3(O)CCC(O)CC3)cc2-c2ccc(S(C)(=O)=O)cc2)cc1 (stereo not drawn) [Comparative Example 3]	> 10 mg/kg
NS(=O)(=O)c1ccc(-n2nc(C3CCCCC3)cc2-c2ccccc2)cc1CO [Comparative Example 30, 4-(3-Cyclohexyl-5-phenyl-1H-pyrazol-1-yl)-2-(hydroxymethyl)benzenesulfonamide]	> 10 mg/kg

same assay, conditions: administration of 10 mg/kg; t-test

SMILES	reduction in the number of writhing responses
NS(=O)(=O)c1ccc(-n2nc(C3CCCCC3)cc2-c2ccccc2)cc1CO [Comparative Example 30, 4-(3-Cyclohexyl-5-phenyl-1H-pyrazol-1-yl)-2-(hydroxymethyl)benzenesulfonamide]	did not cause significant reduction

same assay, conditions: male ddY mice; oral administration 45 min before 0.6% acetic acid i.p.; dose suppressing 50% of writhing responses vs vehicle group; vehicle A or B

SMILES	ED50
COc1ccc(-c2nc(C3(O)CCC(O)(C(F)(F)F)CC3)sc2-c2ccc(C)cc2)cc1 (stereo not drawn) [Example 70-B, 1-(4-(4-Methoxyphenyl)-5-(p-tolyl)thiazol-2-yl)-4-(trifluoromethyl)cyclohexan-cis-1,4-diol]	9.65 mg/kg

tested on: mouse sciatic nerve-ligation model (Seltzer model); experiment: mouse partial sciatic nerve ligation model (Seltzer model), von Frey test; conditions: dose 3 mg/kg oral; vehicle B (27% HP-β-CD); n = 5 to 6

SMILES	von Frey Total Score Observed 1 Hour after Oral Administration (mean ± standard error), Compound-administered group
COc1ccc(-n2nc(C3(O)CCC(O)CC3)cc2-c2ccc(C)c(F)c2)cc1 (stereo not drawn) [Compound 31]	0.7 ± 0.5

same assay, conditions: dose 10 mg/kg oral; […]; n = 5 to 6

SMILES	von Frey Total Score Observed 1 Hour after Oral Administration (mean ± standard error), Compound-administered group
COc1ccc(-n2nc(C3(O)CCC(O)CC3)cc2-c2ccc(C)cc2)cc1F (stereo not drawn) [Compound 30]	1.2 ± 0.6

same assay, conditions: positive controls; gabapentin 30 mg/kg oral; dose of Comparative Example 29 not given

SMILES	analgesic effect 3 hours after the oral administration (von Frey test)
NCC1(CC(=O)O)CCCCC1 [gabapentin, reference compound]	drastically decreased

same assay, conditions: positive controls; gabapentin 30 mg/kg oral; dose of Comparative Example 29 not given; FIGS. 1 to 4

SMILES	time of strongest analgesic effect after oral administration (von Frey test)
NCC1(CC(=O)O)CCCCC1 [gabapentin, reference compound]	1 h

— patent publication US8247569B2, “Cyclohexane derivative and pharmaceutical use thereof” (Toray Industries, Inc., priority 2008, dated 2012)
